Earlier results in patent US7632826B2, “Use of agonists of the glucocorticosteroid and/or mineralo-corticosteroid receptors, in particular corticosteroids for the treatment of addiction” (Curamentis Ltd., priority 1998, dated 2009).

CC(=O)NCCCS(=O)(=O)O [acamprosate]
Patients still abstinent (Austria (Whitworth et al., 1996), placebo 21%): 30%
Patients of the verum group still abstinent at end of study (German part of the study (Sass et al., 1996), after 48 weeks of treatment, placebo 20%): 42%
Addicted patients who did not achieve permanent abstinence despite treatment (average in Europe, placebo 85%): approximately 70%
